From PMC10507085, “Pharmacological inhibition of TBK1/IKKε blunts immunopathology in a murine model of SARS-CoV-2 infection” (Nature Communications, 2023)

Key:
Experiment in all cases: biochemical
Set-up in all cases: KINOMEscan competition binding, DNA-tagged kinase against immobilised ligand, qPCR read-out
Conditions in all cases: read-out: Percent Control
AKT1 = AKT1 (Homo sapiens, UniProt P31749)
CDC42BPG = CDC42BPG (Homo sapiens, UniProt Q6DT37)
CDK14 = CDK14 (Homo sapiens, UniProt O94921)
CDK19 = CDK19 (Homo sapiens, UniProt Q9BWU1)
CDK9 = CDK9 (Homo sapiens, UniProt P50750)
CLK4 = CLK4 (Homo sapiens, UniProt Q9HAZ1)
CSNK2A1 = CSNK2A1 (Homo sapiens, UniProt P68400)
EPHA6 = EPHA6 (Homo sapiens, UniProt Q9UF33)
EPHB1 = EPHB1 (Homo sapiens, UniProt P54762)
HUNK = HUNK (Homo sapiens, UniProt P57058)
MELK = MELK (Homo sapiens, UniProt Q14680)
MET = MET (Homo sapiens, UniProt P08581)
MYO3A = MYO3A (Homo sapiens, UniProt Q8NEV4)
NEK2 = NEK2 (Homo sapiens, UniProt P51955)
NUAK1 = NUAK1 (Homo sapiens, UniProt O60285)
PAK2 = PAK2 (Homo sapiens, UniProt Q13177)
PIP4K2C = PIP4K2C (Homo sapiens, UniProt Q8TBX8)
PLK4 = PLK4 (Homo sapiens, UniProt O00444)
PRKACB = PRKACB (Homo sapiens, UniProt P22694)
SGK3 = SGK3 (Homo sapiens, UniProt Q96BR1)

Sequence of AKT1 (P31749 whole entry): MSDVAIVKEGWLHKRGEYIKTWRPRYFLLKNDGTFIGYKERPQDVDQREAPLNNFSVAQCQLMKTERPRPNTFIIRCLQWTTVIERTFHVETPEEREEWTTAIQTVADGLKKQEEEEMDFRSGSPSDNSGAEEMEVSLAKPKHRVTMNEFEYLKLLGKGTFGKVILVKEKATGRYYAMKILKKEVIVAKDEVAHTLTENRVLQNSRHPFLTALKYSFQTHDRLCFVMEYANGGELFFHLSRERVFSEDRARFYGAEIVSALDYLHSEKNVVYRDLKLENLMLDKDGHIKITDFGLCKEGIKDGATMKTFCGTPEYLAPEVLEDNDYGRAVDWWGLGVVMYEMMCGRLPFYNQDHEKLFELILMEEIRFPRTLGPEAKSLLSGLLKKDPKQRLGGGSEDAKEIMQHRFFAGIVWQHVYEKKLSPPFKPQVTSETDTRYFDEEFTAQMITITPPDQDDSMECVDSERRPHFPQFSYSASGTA
Sequence of PAK2 (Q13177 whole entry): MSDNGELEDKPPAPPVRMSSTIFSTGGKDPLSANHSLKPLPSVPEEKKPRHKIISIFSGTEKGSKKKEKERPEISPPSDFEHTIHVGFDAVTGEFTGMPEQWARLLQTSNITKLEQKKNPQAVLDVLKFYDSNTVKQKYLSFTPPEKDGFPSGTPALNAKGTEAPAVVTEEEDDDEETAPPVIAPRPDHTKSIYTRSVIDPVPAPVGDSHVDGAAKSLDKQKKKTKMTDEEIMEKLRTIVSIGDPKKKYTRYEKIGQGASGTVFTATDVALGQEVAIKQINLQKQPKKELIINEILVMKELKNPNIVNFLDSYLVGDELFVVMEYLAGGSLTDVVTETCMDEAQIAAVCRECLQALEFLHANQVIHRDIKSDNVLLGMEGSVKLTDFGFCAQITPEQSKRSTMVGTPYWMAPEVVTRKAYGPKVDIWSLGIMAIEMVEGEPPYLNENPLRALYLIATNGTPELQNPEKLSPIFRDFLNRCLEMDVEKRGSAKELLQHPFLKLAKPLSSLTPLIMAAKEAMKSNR
Sequence of PLK4 (O00444 whole entry): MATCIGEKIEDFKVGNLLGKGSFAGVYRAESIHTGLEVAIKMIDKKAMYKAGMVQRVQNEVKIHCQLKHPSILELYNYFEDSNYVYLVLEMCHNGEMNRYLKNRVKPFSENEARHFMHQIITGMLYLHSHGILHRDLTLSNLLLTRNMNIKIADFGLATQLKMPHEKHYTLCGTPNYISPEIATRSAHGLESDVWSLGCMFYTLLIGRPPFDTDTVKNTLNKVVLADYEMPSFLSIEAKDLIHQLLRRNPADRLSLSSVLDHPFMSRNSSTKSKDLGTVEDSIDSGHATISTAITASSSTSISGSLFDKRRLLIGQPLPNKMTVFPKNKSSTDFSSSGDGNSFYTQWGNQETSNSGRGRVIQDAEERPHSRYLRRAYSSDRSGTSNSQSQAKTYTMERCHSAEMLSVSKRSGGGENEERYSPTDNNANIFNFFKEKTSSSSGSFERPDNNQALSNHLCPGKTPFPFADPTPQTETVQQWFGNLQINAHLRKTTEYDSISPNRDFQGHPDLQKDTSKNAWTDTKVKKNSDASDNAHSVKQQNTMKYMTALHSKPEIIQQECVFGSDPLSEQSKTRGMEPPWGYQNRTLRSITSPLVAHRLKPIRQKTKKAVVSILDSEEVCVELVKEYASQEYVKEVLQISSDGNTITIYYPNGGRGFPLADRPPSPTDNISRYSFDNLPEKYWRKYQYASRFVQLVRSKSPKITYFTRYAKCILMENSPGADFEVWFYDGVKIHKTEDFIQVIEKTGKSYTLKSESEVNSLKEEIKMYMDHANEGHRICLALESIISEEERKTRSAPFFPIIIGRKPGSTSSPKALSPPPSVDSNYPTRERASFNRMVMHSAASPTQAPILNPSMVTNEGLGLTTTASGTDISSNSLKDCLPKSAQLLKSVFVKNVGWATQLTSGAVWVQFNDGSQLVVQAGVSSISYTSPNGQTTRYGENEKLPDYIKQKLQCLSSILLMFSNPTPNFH
Sequence of MET (P08581 whole entry): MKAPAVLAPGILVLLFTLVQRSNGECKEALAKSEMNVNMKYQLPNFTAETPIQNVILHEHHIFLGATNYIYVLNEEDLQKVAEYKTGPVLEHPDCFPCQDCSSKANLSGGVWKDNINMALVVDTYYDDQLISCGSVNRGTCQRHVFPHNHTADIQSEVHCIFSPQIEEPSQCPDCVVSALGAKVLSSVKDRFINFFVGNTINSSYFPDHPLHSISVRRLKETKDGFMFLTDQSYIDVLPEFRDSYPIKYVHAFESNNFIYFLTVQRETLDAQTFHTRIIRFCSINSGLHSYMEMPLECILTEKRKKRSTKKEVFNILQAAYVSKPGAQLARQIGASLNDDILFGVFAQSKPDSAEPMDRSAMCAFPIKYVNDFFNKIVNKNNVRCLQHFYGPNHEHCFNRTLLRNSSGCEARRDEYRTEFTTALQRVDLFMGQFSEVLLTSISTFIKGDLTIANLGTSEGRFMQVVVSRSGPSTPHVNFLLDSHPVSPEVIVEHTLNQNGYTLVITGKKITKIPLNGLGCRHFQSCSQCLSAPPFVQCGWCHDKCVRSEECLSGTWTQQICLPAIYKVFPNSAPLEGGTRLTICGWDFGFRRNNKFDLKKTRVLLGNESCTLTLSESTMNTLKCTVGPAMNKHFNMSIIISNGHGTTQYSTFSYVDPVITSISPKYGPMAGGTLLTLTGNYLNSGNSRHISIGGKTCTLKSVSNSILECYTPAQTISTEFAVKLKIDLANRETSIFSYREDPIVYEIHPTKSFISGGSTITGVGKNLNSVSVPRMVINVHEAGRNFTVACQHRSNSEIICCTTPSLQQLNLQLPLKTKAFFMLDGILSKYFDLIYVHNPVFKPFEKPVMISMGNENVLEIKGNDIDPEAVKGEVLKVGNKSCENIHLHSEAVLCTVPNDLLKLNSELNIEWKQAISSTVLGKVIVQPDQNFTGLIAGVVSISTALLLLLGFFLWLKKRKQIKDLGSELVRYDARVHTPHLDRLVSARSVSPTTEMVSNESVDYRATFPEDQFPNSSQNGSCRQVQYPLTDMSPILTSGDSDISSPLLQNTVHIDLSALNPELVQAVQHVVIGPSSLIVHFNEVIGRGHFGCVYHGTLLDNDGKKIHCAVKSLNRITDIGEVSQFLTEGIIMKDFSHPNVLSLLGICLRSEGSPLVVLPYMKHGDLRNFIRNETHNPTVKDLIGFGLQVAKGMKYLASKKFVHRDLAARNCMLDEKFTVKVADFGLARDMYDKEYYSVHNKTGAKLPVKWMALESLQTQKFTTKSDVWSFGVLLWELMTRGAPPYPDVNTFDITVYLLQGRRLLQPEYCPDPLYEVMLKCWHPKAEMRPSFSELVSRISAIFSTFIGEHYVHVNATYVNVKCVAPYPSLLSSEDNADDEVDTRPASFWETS
Sequence of CDK9 (P50750 whole entry): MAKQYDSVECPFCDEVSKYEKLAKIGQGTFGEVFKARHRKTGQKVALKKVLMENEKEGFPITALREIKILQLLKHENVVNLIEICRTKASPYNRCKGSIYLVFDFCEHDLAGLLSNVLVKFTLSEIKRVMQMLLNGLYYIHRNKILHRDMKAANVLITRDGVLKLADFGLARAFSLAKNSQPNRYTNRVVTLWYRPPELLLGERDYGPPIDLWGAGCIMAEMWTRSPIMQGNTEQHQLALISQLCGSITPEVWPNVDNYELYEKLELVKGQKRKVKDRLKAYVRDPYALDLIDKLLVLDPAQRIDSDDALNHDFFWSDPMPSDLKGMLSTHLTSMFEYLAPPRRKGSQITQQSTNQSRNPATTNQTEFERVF
Sequence of EPHA6 (Q9UF33 whole entry): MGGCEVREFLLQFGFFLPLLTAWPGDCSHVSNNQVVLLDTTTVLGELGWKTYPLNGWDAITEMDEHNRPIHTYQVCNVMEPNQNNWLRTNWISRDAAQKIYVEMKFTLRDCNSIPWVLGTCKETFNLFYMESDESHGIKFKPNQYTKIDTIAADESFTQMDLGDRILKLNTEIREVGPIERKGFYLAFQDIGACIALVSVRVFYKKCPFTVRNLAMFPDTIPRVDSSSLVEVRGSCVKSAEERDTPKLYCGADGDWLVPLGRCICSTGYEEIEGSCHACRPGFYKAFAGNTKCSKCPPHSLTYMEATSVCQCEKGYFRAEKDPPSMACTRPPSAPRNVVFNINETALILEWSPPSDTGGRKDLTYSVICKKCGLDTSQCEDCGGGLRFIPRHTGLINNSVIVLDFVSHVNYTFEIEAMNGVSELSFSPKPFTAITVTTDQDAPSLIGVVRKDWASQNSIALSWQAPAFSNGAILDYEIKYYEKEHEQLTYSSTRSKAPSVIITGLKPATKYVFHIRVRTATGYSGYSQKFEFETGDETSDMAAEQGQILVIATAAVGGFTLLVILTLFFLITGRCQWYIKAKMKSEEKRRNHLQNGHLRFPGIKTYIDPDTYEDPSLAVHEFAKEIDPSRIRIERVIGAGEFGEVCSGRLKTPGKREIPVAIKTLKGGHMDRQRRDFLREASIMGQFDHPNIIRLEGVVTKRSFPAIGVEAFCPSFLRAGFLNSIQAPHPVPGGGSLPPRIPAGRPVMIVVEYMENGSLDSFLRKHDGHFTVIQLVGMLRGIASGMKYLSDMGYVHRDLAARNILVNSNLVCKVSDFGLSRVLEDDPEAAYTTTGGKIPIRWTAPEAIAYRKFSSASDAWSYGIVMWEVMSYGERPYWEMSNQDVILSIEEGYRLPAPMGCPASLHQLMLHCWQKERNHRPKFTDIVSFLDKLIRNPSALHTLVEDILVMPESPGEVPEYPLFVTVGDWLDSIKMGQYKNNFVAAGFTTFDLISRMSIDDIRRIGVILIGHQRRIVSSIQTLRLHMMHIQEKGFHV

**Q.** With `Oc1ccc(C2=Cc3ccc(O)cc3OC2)cc1` [compound 1, idronoxil] as the compound, how does the remaining binding at 10 µM (AKT1) read?
**A.** 75%

**Q.** And the remaining binding at 10 µM (CDC42BPG)?
**A.** 93%

**Q.** And the remaining binding at 10 µM (CDK14)?
**A.** 95%

**Q.** What about the remaining binding at 10 µM (CDK19) of the same compound?
**A.** 99%

**Q.** And the remaining binding at 10 µM (CDK9)?
**A.** 91%

**Q.** What about the remaining binding at 10 µM (CLK4) of the same compound?
**A.** 36%

**Q.** And the remaining binding at 10 µM (CSNK2A1)?
**A.** 49%

**Q.** And the remaining binding at 10 µM (EPHA6)?
**A.** 99%

**Q.** What about the remaining binding at 10 µM (EPHB1) of the same compound?
**A.** 84%

**Q.** And the remaining binding at 10 µM (HUNK)?
**A.** 69%

**Q.** And the remaining binding at 10 µM (MELK)?
**A.** 64%

**Q.** What about the remaining binding at 10 µM (MET) of the same compound?
**A.** 81%

**Q.** What about the remaining binding at 10 µM (MYO3A) of the same compound?
**A.** 91%

**Q.** And the remaining binding at 10 µM (NEK2)?
**A.** 100%

**Q.** And the remaining binding at 10 µM (NUAK1)?
**A.** 97%

**Q.** And the remaining binding at 10 µM (PAK2)?
**A.** 49%

**Q.** What about the remaining binding at 10 µM (PIP4K2C) of the same compound?
**A.** 52%

**Q.** What about the remaining binding at 10 µM (PLK4) of the same compound?
**A.** 88%

**Q.** What about the remaining binding at 10 µM (PRKACB) of the same compound?
**A.** 88%

**Q.** And the remaining binding at 10 µM (SGK3)?
**A.** 49%
